The numbers were not newly measured in patent US20080132534A1, “Pharmaceutical composition comprising a macrolide immunomodulator” (priority 2003, published 2008), which cites them from elsewhere.

For this series, the system named is allogeneic kidney transplantation. The following applies: rat, oral administration, suppression of systemic immune response.

As for `C=CC[C@@H]1/C=C(\C)C[C@H](C)C[C@H](OC)[C@H]2O[C@@](O)(C(=O)C(=O)N3CCCC[C@H]3C(=O)O[C@H](/C(C)=C/[C@@H]3CC[C@@H](O)[C@H](OC)C3)[C@H](C)[C@@H](O)CC1=O)[C@H](C)C[C@@H]2OC` [tacrolimus], the “minimum effective dose (MED)” value is 14 mg/kg.
